# Assay results from publication PMC8887546, “Design and Synthesis of Brain Penetrant Glycopeptide Analogues of PACAP With Neuroprotective Potential for Traumatic Brain Injury and Parkinsonism” (Frontiers in drug discovery, 2022).
# Tested on: C57BL/6 mice, diffuse TBI
# Test: Iba1 microglial skeletal analysis after TBI
# Assay type: in vivo, mouse
# Conditions: 10 mg/kg i.p. 30 min prior to TBI, 15 DPI, cortex
# Procedure: 30 min prior to TBI or sham injury, mice were randomly assigned to a therapeutic group and received an intraperitoneal injection of 2LS80Mel (10 mg/kg) or sterile saline (0.25 ml). Groups were as follows: TBI-2LS80Mel n = 17; TBI-vehicle n = 17; sham n = 22 (vehicle n = 11, 2LS80Mel n = 11).
# For injury induction 24 h post-surgery, mice were re-anesthetized with 5% isoflurane delivered for 3 min. The cap was removed from the injury-hub assembly and the dura was visually inspected through the hub to ensure it was intact with no debris. The hub was then filled with normal saline and attached to an extension tube connected to the male end of the fluid percussion device (Custom Design and Fabrication, Virginia Commonwealth University, Richmond, VA). An injury of moderate severity for our injury model (1.4 atm) was administered by releasing the pendulum onto the fluid-filled cylinder following the return of a toe-pinch response. Sham mice underwent the same procedure except the pendulum was not released. Injured mice were monitored for presence of a forearm fencing response and righting reflex times were recorded as indicators of injury severity ([Hosseini and Lifshitz, 2009]). […] After spontaneously righting, mice were placed in a heated recovery cage and monitored until they were ambulatory (approximately 5–15 min) before being returned to their piezoelectric sleep cage (see below). […]
compound,measurement,value
CC[C@H](C)[C@H](NC(=O)CNC(=O)[C@H](CC(=O)O)NC(=O)[C@H](CO)NC(=O)[C@@H](N)Cc1c[nH]cn1)C(=O)N[C@@H](Cc1ccccc1)C(=O)N[C@H](C(=O)N[C@@H](CC(=O)O)C(=O)N[C@@H](CO)C(=O)N[C@@H](Cc1ccc(O)cc1)C(=O)N[C@@H](CO)C(=O)N[C@@H](CCCNC(=N)N)C(=O)N[C@@H](Cc1ccc(O)cc1)C(=O)N[C@@H](CCCNC(=N)N)C(=O)N[C@@H](CCCCN)C(=O)N[C@@H](CCC(N)=O)C(=O)N[C@@H](CC(C)C)C(=O)N[C@@H](C)C(=O)N[C@H](C(=O)N[C@@H](CCCCN)C(=O)N[C@@H](CCCCN)C(=O)N[C@@H](Cc1ccc(O)cc1)C(=O)N[C@@H](CC(C)C)C(=O)N[C@@H](C)C(=O)N[C@@H](C)C(=O)N[C@H](C(=O)N[C@@H](CC(C)C)C(=O)N[C@@H](CO[C@@H]1O[C@H](CO[C@H]2O[C@H](CO)[C@H](O)[C@H](O)[C@H]2O)[C@@H](O)[C@H](O)[C@H]1O)C(N)=O)C(C)C)C(C)C)[C@@H](C)O [Compound 2LS80Mel],Microglial ramification,no significant differences
